Results: article PMC12621043, “Un-LOK-ing a New Approach for Conformational Selective Targeting of STK10 (LOK)” (ACS Medicinal Chemistry Letters, 2025)

biological target: T1, CLK3A (Homo sapiens, UniProt P49761); assay: DSF Tm panel; assay type: binding; conditions: 10 μM compound
T1 construct: purchased in-house DSF kinase panel (SGC-style construct names; the trailing letter is the construct ID)
Description: (§1) The synthesized urea-based derivatives were evaluated in a panel of kinases by differential scanning fluorescence (DSF) to investigate their selectivity profile. A positive ΔT m in the DSF assay indicates stabilization of the protein upon ligand binding in comparison to its apo state, with higher thermal shifts generally correlating with stronger binding. For this purpose, we used our internal kinase selectivity panel (∼90 kinases) along with staurosporine as a positive control. […] This was also reflected in the overall low selectivity score (S) throughout the series, which is determined by the ratio between the number of kinases that are stabilized above 5 °C and the total number of kinases tested (Figure ). Motivated by these findings, we further validated the entire series by orthogonal binding and activity assays to determine the in vitro and cellular potency and selectivity of the developed series in comparison to the selected reference compounds. […]
(§2) was performed as previously described.[1,2] Briefly, recombinant protein kinase domains at a concentration of 2 μM were mixed with 10 μM compound in a buffer containing 20 mM HEPES, […]
(§3) probe (1 µl per mL). Subsequently, temperature-dependent protein unfolding profiles were […]
(§4) emission filters were set to 465 nm and 590 nm, respectively. The temperature was raised with a step rate of 3 °C per minute. […]
(§5) inflection point of the transition curve. […]
(§6) previously.[3] In brief, STK10, STK3, STK4 and SLK were obtained as plasmids cloned in […]
(§7) Plasmids were transfected into
(§8) KD concentration taken from TracerDB (tracerdb.org)[4] were pipetted into white 384-well

T1 sequence (P49761 127-484): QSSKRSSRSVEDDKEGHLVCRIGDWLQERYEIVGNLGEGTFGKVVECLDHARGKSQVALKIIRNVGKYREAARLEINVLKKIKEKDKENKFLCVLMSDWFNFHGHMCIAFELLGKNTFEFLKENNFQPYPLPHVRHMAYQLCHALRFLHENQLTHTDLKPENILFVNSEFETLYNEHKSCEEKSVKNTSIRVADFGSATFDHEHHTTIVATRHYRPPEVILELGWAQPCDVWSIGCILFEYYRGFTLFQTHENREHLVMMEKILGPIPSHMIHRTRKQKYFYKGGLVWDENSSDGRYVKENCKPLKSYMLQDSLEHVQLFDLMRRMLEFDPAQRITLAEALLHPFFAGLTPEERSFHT

SMILES | ΔTm at 10 µM
O=C(NCc1ccc(C(F)(F)F)cc1)Nc1ccc2cc1OCCOCCNc1ccn3ncc-2c3n1 [compound 28] | 0.4 °C
COc1ccccc1CNC(=O)Nc1ccc2cc1OCCOCCNc1ccn3ncc-2c3n1 [compound 29] | 0.2 °C
COc1cccc(CNC(=O)Nc2ccc3cc2OCCOCCNc2ccn4ncc-3c4n2)c1 [compound 30] | 0.2 °C
COc1ccc(CNC(=O)Nc2ccc3cc2OCCOCCNc2ccn4ncc-3c4n2)cc1 [compound 31] | 0 °C

biological target: T2, ULK1A (Homo sapiens, UniProt O75385); assay: DSF Tm panel; assay type: binding; conditions: 10 μM compound
T2 construct: purchased in-house DSF kinase panel (SGC-style construct names; the trailing letter is the construct ID)
T2 sequence (O75385 1-283): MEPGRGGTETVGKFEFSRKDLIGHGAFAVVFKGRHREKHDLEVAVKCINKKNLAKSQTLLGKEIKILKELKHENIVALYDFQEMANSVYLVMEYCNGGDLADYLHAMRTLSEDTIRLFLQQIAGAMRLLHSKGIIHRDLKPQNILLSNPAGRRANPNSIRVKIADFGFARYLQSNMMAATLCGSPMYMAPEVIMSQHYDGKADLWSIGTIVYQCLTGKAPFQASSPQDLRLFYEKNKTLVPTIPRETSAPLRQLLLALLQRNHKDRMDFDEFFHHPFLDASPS
Description: as §1, §2, §3, §4, §5, §6, §7, §8

SMILES | ΔTm at 10 µM
O=C(NCc1ccc(C(F)(F)F)cc1)Nc1ccc2cc1OCCOCCNc1ccn3ncc-2c3n1 [compound 28] | 0.6 °C
COc1ccccc1CNC(=O)Nc1ccc2cc1OCCOCCNc1ccn3ncc-2c3n1 [compound 29] | 0.4 °C
COc1cccc(CNC(=O)Nc2ccc3cc2OCCOCCNc2ccn4ncc-3c4n2)c1 [compound 30] | 0.5 °C
COc1ccc(CNC(=O)Nc2ccc3cc2OCCOCCNc2ccn4ncc-3c4n2)cc1 [compound 31] | 0.6 °C

biological target: T3, CHEK2A (Homo sapiens, UniProt O96017); assay: DSF Tm panel; assay type: binding; conditions: 10 μM compound
T3 construct: purchased in-house DSF kinase panel (SGC-style construct names; the trailing letter is the construct ID)
Description: as §1, §2, §3, §4, §5, §6, §7, §8

T3 sequence (O96017 210-531): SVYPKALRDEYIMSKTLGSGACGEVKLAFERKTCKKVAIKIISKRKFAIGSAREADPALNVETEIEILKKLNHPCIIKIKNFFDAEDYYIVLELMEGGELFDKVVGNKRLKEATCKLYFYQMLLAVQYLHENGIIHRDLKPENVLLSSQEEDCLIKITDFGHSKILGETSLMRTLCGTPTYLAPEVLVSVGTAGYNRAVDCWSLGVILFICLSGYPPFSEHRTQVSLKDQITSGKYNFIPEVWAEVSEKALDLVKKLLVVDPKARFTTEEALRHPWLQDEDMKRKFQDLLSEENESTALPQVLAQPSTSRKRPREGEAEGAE

SMILES | ΔTm at 10 µM
O=C(NCc1ccc(C(F)(F)F)cc1)Nc1ccc2cc1OCCOCCNc1ccn3ncc-2c3n1 [compound 28] | 7.7 °C
COc1ccccc1CNC(=O)Nc1ccc2cc1OCCOCCNc1ccn3ncc-2c3n1 [compound 29] | 5.8 °C
COc1cccc(CNC(=O)Nc2ccc3cc2OCCOCCNc2ccn4ncc-3c4n2)c1 [compound 30] | 5.1 °C
COc1ccc(CNC(=O)Nc2ccc3cc2OCCOCCNc2ccn4ncc-3c4n2)cc1 [compound 31] | 7 °C

biological target: T4, CAMK4A (Homo sapiens, UniProt Q16566); assay: DSF Tm panel; assay type: binding; conditions: 10 μM compound
T4 construct: purchased in-house DSF kinase panel (SGC-style construct names; the trailing letter is the construct ID)
T4 sequence (Q16566 1-473): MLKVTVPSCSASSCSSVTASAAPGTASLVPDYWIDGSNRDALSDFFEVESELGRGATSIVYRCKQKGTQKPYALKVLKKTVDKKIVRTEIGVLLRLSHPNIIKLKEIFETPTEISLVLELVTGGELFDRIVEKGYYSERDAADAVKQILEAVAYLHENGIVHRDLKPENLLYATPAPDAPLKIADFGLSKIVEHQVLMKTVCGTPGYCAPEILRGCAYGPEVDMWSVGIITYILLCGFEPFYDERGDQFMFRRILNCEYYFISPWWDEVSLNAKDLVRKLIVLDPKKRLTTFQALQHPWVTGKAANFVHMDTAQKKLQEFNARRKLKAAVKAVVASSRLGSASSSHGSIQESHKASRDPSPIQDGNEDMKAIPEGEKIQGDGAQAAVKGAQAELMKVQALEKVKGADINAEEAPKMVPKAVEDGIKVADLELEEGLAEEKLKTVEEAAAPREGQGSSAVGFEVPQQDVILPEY
Description: as §1, §2, §3, §4, §5, §6, §7, §8

SMILES | ΔTm at 10 µM
O=C(NCc1ccc(C(F)(F)F)cc1)Nc1ccc2cc1OCCOCCNc1ccn3ncc-2c3n1 [compound 28] | 1 °C
COc1ccccc1CNC(=O)Nc1ccc2cc1OCCOCCNc1ccn3ncc-2c3n1 [compound 29] | 0.6 °C
COc1cccc(CNC(=O)Nc2ccc3cc2OCCOCCNc2ccn4ncc-3c4n2)c1 [compound 30] | 0.8 °C
COc1ccc(CNC(=O)Nc2ccc3cc2OCCOCCNc2ccn4ncc-3c4n2)cc1 [compound 31] | 1.1 °C

biological target: T5, PLK4A (Homo sapiens, UniProt O00444); assay: DSF Tm panel; assay type: binding; conditions: 10 μM compound
T5 construct: purchased in-house DSF kinase panel (SGC-style construct names; the trailing letter is the construct ID)
T5 sequence (O00444 2-275): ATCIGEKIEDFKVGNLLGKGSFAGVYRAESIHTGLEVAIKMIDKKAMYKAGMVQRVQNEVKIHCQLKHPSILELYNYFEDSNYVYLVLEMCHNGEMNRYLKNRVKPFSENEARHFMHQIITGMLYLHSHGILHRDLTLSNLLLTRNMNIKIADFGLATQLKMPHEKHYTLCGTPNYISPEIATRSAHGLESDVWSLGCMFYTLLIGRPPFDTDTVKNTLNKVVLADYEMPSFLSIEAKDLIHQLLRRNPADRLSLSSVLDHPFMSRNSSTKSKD
Description: as §1, §2, §3, §4, §5, §6, §7, §8

SMILES | ΔTm at 10 µM
O=C(NCc1ccc(C(F)(F)F)cc1)Nc1ccc2cc1OCCOCCNc1ccn3ncc-2c3n1 [compound 28] | 3.3 °C
COc1ccccc1CNC(=O)Nc1ccc2cc1OCCOCCNc1ccn3ncc-2c3n1 [compound 29] | 3 °C
COc1cccc(CNC(=O)Nc2ccc3cc2OCCOCCNc2ccn4ncc-3c4n2)c1 [compound 30] | 3.5 °C
COc1ccc(CNC(=O)Nc2ccc3cc2OCCOCCNc2ccn4ncc-3c4n2)cc1 [compound 31] | 4.9 °C

biological target: T6, PAK4A (Homo sapiens, UniProt O96013); assay: DSF Tm panel; assay type: binding; conditions: 10 μM compound
T6 construct: purchased in-house DSF kinase panel (SGC-style construct names; the trailing letter is the construct ID)
Description: as §1, §2, §3, §4, §5, §6, §7, §8

T6 sequence (O96013 291-591): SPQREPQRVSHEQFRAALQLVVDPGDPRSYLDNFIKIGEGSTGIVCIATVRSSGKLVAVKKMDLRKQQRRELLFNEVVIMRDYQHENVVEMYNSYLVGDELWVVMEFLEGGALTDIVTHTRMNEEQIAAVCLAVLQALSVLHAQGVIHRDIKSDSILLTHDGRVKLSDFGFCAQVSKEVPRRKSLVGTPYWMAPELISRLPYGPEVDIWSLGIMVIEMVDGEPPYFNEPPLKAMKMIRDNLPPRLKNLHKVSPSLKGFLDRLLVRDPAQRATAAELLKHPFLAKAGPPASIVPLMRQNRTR

SMILES | ΔTm at 10 µM
O=C(NCc1ccc(C(F)(F)F)cc1)Nc1ccc2cc1OCCOCCNc1ccn3ncc-2c3n1 [compound 28] | 2.4 °C
COc1ccccc1CNC(=O)Nc1ccc2cc1OCCOCCNc1ccn3ncc-2c3n1 [compound 29] | 1.3 °C
COc1cccc(CNC(=O)Nc2ccc3cc2OCCOCCNc2ccn4ncc-3c4n2)c1 [compound 30] | 1.5 °C
COc1ccc(CNC(=O)Nc2ccc3cc2OCCOCCNc2ccn4ncc-3c4n2)cc1 [compound 31] | 1.7 °C

biological target: T7, MAP2K4A (Homo sapiens, UniProt P45985); assay: DSF Tm panel; assay type: binding; conditions: 10 μM compound
T7 construct: purchased in-house DSF kinase panel (SGC-style construct names; the trailing letter is the construct ID)
T7 sequence (P45985 102-367): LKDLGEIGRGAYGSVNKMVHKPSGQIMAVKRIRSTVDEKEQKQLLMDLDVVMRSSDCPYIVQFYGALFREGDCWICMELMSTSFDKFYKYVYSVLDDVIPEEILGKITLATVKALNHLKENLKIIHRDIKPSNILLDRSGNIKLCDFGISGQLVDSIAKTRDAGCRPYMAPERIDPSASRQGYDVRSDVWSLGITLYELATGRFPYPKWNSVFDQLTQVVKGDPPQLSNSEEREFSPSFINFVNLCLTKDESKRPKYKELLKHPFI
Description: as §1, §2, §3, §4, §5, §6, §7, §8

SMILES | ΔTm at 10 µM
O=C(NCc1ccc(C(F)(F)F)cc1)Nc1ccc2cc1OCCOCCNc1ccn3ncc-2c3n1 [compound 28] | 5 °C
COc1ccccc1CNC(=O)Nc1ccc2cc1OCCOCCNc1ccn3ncc-2c3n1 [compound 29] | 2.8 °C
COc1cccc(CNC(=O)Nc2ccc3cc2OCCOCCNc2ccn4ncc-3c4n2)c1 [compound 30] | 3.2 °C
COc1ccc(CNC(=O)Nc2ccc3cc2OCCOCCNc2ccn4ncc-3c4n2)cc1 [compound 31] | 4.3 °C

biological target: T8, STK17AA (Homo sapiens, UniProt Q9UEE5); assay: DSF Tm panel; assay type: binding; conditions: 10 μM compound
T8 construct: purchased in-house DSF kinase panel (SGC-style construct names; the trailing letter is the construct ID)
T8 sequence (Q9UEE5 61-321): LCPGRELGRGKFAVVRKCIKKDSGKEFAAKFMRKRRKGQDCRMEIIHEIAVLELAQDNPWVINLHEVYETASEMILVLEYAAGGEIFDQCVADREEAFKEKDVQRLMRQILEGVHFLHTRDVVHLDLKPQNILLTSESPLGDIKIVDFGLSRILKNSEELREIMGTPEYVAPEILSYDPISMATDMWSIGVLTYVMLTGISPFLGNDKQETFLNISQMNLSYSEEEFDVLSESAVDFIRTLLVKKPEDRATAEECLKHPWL
Description: as §1, §2, §3, §4, §5, §6, §7, §8

SMILES | ΔTm at 10 µM
O=C(NCc1ccc(C(F)(F)F)cc1)Nc1ccc2cc1OCCOCCNc1ccn3ncc-2c3n1 [compound 28] | 2.4 °C
COc1ccccc1CNC(=O)Nc1ccc2cc1OCCOCCNc1ccn3ncc-2c3n1 [compound 29] | 3.1 °C
COc1cccc(CNC(=O)Nc2ccc3cc2OCCOCCNc2ccn4ncc-3c4n2)c1 [compound 30] | 5.8 °C
COc1ccc(CNC(=O)Nc2ccc3cc2OCCOCCNc2ccn4ncc-3c4n2)cc1 [compound 31] | 5.1 °C

biological target: T9, BMX (BMXA) (Homo sapiens, UniProt P51813); assay: DSF Tm panel; assay type: binding; conditions: 10 μM compound
T9 construct: purchased in-house DSF kinase panel (SGC-style construct names; the trailing letter is the construct ID)
Description: as §1, §2, §3, §4, §5, §6, §7, §8

T9 sequence (P51813 411-675): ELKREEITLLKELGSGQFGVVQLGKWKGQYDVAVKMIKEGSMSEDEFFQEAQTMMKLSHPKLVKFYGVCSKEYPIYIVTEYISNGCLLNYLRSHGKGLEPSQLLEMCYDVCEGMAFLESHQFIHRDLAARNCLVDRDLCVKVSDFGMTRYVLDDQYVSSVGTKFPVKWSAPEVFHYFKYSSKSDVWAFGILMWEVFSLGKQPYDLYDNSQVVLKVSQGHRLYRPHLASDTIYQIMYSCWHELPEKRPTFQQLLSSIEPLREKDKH

SMILES | ΔTm at 10 µM
O=C(NCc1ccc(C(F)(F)F)cc1)Nc1ccc2cc1OCCOCCNc1ccn3ncc-2c3n1 [compound 28] | 2.7 °C
COc1ccccc1CNC(=O)Nc1ccc2cc1OCCOCCNc1ccn3ncc-2c3n1 [compound 29] | -0.1 °C
COc1cccc(CNC(=O)Nc2ccc3cc2OCCOCCNc2ccn4ncc-3c4n2)c1 [compound 30] | 0.4 °C
COc1ccc(CNC(=O)Nc2ccc3cc2OCCOCCNc2ccn4ncc-3c4n2)cc1 [compound 31] | 1.4 °C

biological target: T10, PIM3A (Homo sapiens, UniProt Q86V86); assay: DSF Tm panel; assay type: binding; conditions: 10 μM compound
T10 construct: purchased in-house DSF kinase panel (SGC-style construct names; the trailing letter is the construct ID)
Description: as §1, §2, §3, §4, §5, §6, §7, §8

SMILES | ΔTm at 10 µM
O=C(NCc1ccc(C(F)(F)F)cc1)Nc1ccc2cc1OCCOCCNc1ccn3ncc-2c3n1 [compound 28] | 4.3 °C
COc1ccccc1CNC(=O)Nc1ccc2cc1OCCOCCNc1ccn3ncc-2c3n1 [compound 29] | 3.9 °C
COc1cccc(CNC(=O)Nc2ccc3cc2OCCOCCNc2ccn4ncc-3c4n2)c1 [compound 30] | 4.1 °C
COc1ccc(CNC(=O)Nc2ccc3cc2OCCOCCNc2ccn4ncc-3c4n2)cc1 [compound 31] | 4.9 °C

biological target: T11, FGFR1B (Homo sapiens, UniProt P11362); assay: DSF Tm panel; assay type: binding; conditions: 10 μM compound
T11 construct: purchased in-house DSF kinase panel (SGC-style construct names; the trailing letter is the construct ID)
Description: as §1, §2, §3, §4, §5, §6, §7, §8

T11 sequence (P11362 456-767): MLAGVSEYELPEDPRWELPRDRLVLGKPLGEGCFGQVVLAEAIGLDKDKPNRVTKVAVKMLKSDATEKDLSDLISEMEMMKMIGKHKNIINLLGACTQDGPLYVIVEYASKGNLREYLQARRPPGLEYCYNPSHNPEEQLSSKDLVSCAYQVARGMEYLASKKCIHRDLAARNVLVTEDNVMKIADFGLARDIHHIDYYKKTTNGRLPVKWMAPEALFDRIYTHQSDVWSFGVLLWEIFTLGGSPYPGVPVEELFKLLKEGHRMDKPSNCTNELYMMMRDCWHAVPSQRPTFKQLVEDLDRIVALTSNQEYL

SMILES | ΔTm at 10 µM
O=C(NCc1ccc(C(F)(F)F)cc1)Nc1ccc2cc1OCCOCCNc1ccn3ncc-2c3n1 [compound 28] | 1.5 °C
COc1ccccc1CNC(=O)Nc1ccc2cc1OCCOCCNc1ccn3ncc-2c3n1 [compound 29] | 1.4 °C
COc1cccc(CNC(=O)Nc2ccc3cc2OCCOCCNc2ccn4ncc-3c4n2)c1 [compound 30] | 1.4 °C
COc1ccc(CNC(=O)Nc2ccc3cc2OCCOCCNc2ccn4ncc-3c4n2)cc1 [compound 31] | 1.5 °C
